# Test: Determination of the log P values by HPLC (formic acid method)
# Format: physicochemical
# Conditions: reversed-phase HPLC column (C 18), reversed-phase column (C 18), acidic range (pH 3.4), 55° C.
# Description: 1) Description of Method for Determination of the Log P Values (Formic Acid Method)
# Eluents for determination in the acidic range (pH 3.4):
# Eluent A: acetonitrile+1 ml of formic acid/liter. Eluent B: water+0.9 ml of formic acid/liter.
# The lambda max values were determined in the maxima of the chromatographic signals using the UV spectra from 200 nm to 400 nm.
row,SMILES,chromatographic logP
1,"N#Cc1cc(F)cc(F)c1-n1ccc(NC(=O)c2ccccc2C(F)(F)F)n1 [Compound I-1-393, N-[1-(2-Cyano-4,6-difluorophenyl)-1H-pyrazol-3-yl]-2-(trifluoromethyl)benzamide]",2.65

# Same assay, conditions: reversed-phase column (C 18), acidic range (pH 3.4), 55° C.
row,SMILES,log P
1,Cc1nnsc1C(=O)Nc1ccn(-c2c(F)cccc2F)n1 [Compound I-1-326],2.15
2,Cc1cnoc1C(=O)Nc1ccn(-c2c(F)cccc2F)n1 [Compound I-1-327],2.24
3,Cn1cnnc1C(=O)Nc1ccn(-c2c(F)cccc2F)n1 [Compound I-1-328],1.51
4,O=C(Nc1ccn(-c2c(F)cccc2F)n1)c1cc(Cl)ccc1C(F)(F)F [Compound I-1-329],3.11
5,O=C(Nc1ccn(-c2c(F)cccc2F)n1)c1ncncc1Cl [Compound I-1-330],2.14
6,O=C(Nc1ccn(-c2c(F)cccc2F)n1)c1cc(F)ccc1C(F)(F)F [Compound I-1-331],2.80
7,Cc1snnc1C(=O)Nc1ccn(-c2c(F)cccc2F)n1 [Compound I-1-332],2.45
8,CC1=C(C(=O)Nc2ccn(-c3c(F)cccc3F)n2)CCCO1 [Compound I-1-333],2.30
9,O=C(Nc1ccn(-c2ccccc2Br)n1)c1c(F)cccc1F [Compound I-1-334],2.70
10,Cc1cccnc1C(=O)Nc1ccn(-c2ccccc2Br)n1 [Compound I-1-336],1.44
11,Cc1ccc(-n2ccc(NC(=O)c3ccccc3Br)n2)c(Cl)c1 [Compound I-1-338],3.23
12,Cc1ccc(-n2ccc(NC(=O)c3ccccc3Cl)n2)c(Cl)c1 [Compound I-1-339],3.20
13,CCOc1cccc(Cl)c1-n1ccc(NC(=O)c2ccccc2C(F)(F)F)n1 [Compound I-1-340],3.15
14,CS(=O)(=O)c1ccccc1C(=O)Nc1ccn(-c2ccccc2Cl)n1 [Compound I-1-341],2.17
15,Cc1cc(NC(=O)c2ccccc2S(C)(=O)=O)nn1-c1ccccc1Cl [Compound I-1-342],1.82
16,Cc1cc(NC(=O)c2ccccc2OC(F)(F)F)nn1-c1ccccc1Cl [Compound I-1-343],2.87
17,O=C(Nc1ccn(-c2ccccc2Cl)n1)c1cccnc1OC(F)(F)F [Compound I-1-344],3.10
18,Cc1cn(-c2ccccc2Cl)nc1NC(=O)c1ccccc1C(F)(F)F [Compound I-1-345],3.01
19,N#Cc1cn(-c2ccccc2Cl)nc1NC(=O)c1ccccc1C(F)(F)F [Compound I-1-346],2.53
20,Cc1cc(NC(=O)c2ccccc2C(F)(F)F)nn1-c1ccccc1Cl [Compound I-1-347],2.58
21,Cc1cn(-c2ccccc2Cl)nc1NC(=O)c1cccnc1C(F)(F)F [Compound I-1-348],2.53

row,SMILES,log P
1,Cc1cc(NC(=O)c2cccnc2C(F)(F)F)nn1-c1ccccc1Cl [Compound I-1-349],2.13
2,O=C(Nc1ccn(-c2ccccc2Cl)n1)c1cccc(Cl)c1Cl [Compound I-1-350],3.20
3,O=C(Nc1ccn(-c2ccccc2Cl)n1)c1c(Cl)cccc1Cl [Compound I-1-351],3.00
4,Cc1cn(-c2ccccc2Cl)nc1NC(=O)c1c(F)cccc1F [Compound I-1-352],2.70
5,Cc1cccc(C)c1C(=O)Nc1ccn(-c2ccccc2Cl)n1 [Compound I-1-353],2.97
6,Cc1cn(-c2ccccc2Cl)nc1NC(=O)c1ccccc1Br [Compound I-1-354],2.86
7,Nc1cc(NC(=O)c2ccccc2Br)nn1-c1ccccc1Cl [Compound I-1-355],1.94
8,Cc1cc(NC(=O)c2ccccc2Br)nn1-c1ccccc1Cl [Compound I-1-356],2.45
9,Cc1cn(-c2ccccc2Cl)nc1NC(=O)c1cccnc1Br [Compound I-1-357],2.23
10,O=C(Nc1ccn(-c2ccccc2Cl)n1)c1cccnc1Br [Compound I-1-358],2.22
11,Cc1cc(NC(=O)c2cccnc2Br)nn1-c1ccccc1Cl [Compound I-1-359],1.85
12,Cc1cn(-c2ccccc2Cl)nc1NC(=O)c1ccccc1Cl [Compound I-1-360],2.80
13,Nc1cc(NC(=O)c2ccccc2Cl)nn1-c1ccccc1Cl [Compound I-1-361],1.88
14,N#Cc1cn(-c2ccccc2Cl)nc1NC(=O)c1ccccc1Cl [Compound I-1-362],2.37
15,O=C(Nc1ccn(-c2ccccc2Cl)n1)c1nccnc1Cl [Compound I-1-363],2.45
16,O=C(Nc1ccn(-c2ccccc2Cl)n1)c1cccnc1F [Compound I-1-364],2.38
17,Cc1cn(-c2ccccc2Cl)nc1NC(=O)c1ccccc1I [Compound I-1-365],2.99
18,O=C(Nc1nn(-c2ccccc2Cl)cc1Br)c1ccccc1I [Compound I-1-366],3.12
19,O=C(Nc1nn(-c2ccccc2Cl)cc1I)c1ccccc1I [Compound I-1-367],3.18
20,N#Cc1cn(-c2ccccc2Cl)nc1NC(=O)c1ccccc1I [Compound I-1-368],2.51
21,O=C(Nc1ccn(-c2ccccc2Cl)n1)c1cccnc1I [Compound I-1-369],2.27

row,SMILES,log P
1,Cc1occc1C(=O)Nc1ccn(-c2ccccc2Cl)n1 [Compound I-1-370],2.71
2,Cc1nc(C(F)(F)F)c(C(=O)Nc2ccn(-c3ccccc3Cl)n2)s1 [Compound I-1-371],2.88
3,CC1=C(C(=O)Nc2ccn(-c3ccccc3Cl)n2)SCCO1 [Compound I-1-372],2.75
4,CC(C)(C)c1ccccc1C(=O)Nc1ccn(-c2ccccc2Cl)n1 [Compound I-1-373],3.85
5,O=C(Nc1ccn(-c2ccccc2Cl)n1)c1sccc1C(F)F [Compound I-1-374],3.15
6,O=C(Nc1ccn(-c2ccccc2Cl)n1)c1sccc1C(F)(F)F [Compound I-1-375],3.15
7,Cc1cc(NC(=O)c2ncccc2C(F)(F)F)nn1-c1ccccc1Cl [Compound I-1-376],2.57
8,O=C(Nc1ccn(-c2ccccc2Cl)n1)c1sccc1Cl [Compound I-1-377],3.29
9,O=C(Nc1ccn(-c2ccccc2Cl)n1)c1occc1I [Compound I-1-378],2.96
10,O=C(Nc1ccn(-c2ccccc2Cl)n1)c1sccc1I [Compound I-1-379],3.34
11,Cc1cc(NC(=O)c2cnccc2C(F)(F)F)nn1-c1ccccc1Cl [Compound I-1-380],2.09
12,O=C(Nc1ccn(-c2ccccc2Cl)n1)c1cnccc1Cl [Compound I-1-381],2.19
13,Cc1nn(C)c(F)c1C(=O)Nc1ccn(-c2ccccc2Cl)n1 [Compound I-1-382],2.15
14,Cn1nc(C(F)(F)F)c(C(=O)Nc2ccn(-c3ccccc3Cl)n2)c1F [Compound I-1-383],2.86
15,O=C(Nc1ccn(-c2ccccc2Cl)n1)c1c(F)cccc1C(F)(F)F [Compound I-1-384],3.05
16,O=C(Nc1ccn(-c2cnc(Cl)cn2)n1)c1ccccc1C(F)(F)F [Compound I-1-385],2.94
17,O=C(Nc1ccn(-c2cnc(Cl)cn2)n1)c1cccnc1C(F)(F)F [Compound I-1-386],2.45
18,O=C(Nc1ccn(-c2cnc(Cl)cn2)n1)c1c(F)cccc1F [Compound I-1-387],2.67
19,O=C(Nc1ccn(-c2cnc(Cl)cn2)n1)c1ccccc1Br [Compound I-1-388],2.84
20,O=C(Nc1ccn(-c2cnc(Cl)cn2)n1)c1ccccc1Cl [Compound I-1-389],2.82
21,O=C(Nc1ccn(-c2cnc(Cl)cn2)n1)c1ccccc1I [Compound I-1-390],2.96

row,SMILES,log P
1,O=C(Nc1ccn(-c2cccnc2Cl)n1)c1ccccc1C(F)(F)F [Compound I-1-391],2.31
2,O=C(Nc1ccn(-c2cccnc2Cl)n1)c1ccccc1Cl [Compound I-1-392],2.13
3,N#Cc1ccccc1-n1ccc(NC(=O)c2ccccc2I)n1 [Compound I-1-394],2.53
4,CCOc1c(Cl)cccc1-n1ccc(NC(=O)c2cccnc2C(F)(F)F)n1 [Compound I-1-395],3.21
5,CCOc1c(F)cccc1-n1ccc(NC(=O)c2ccccc2Br)n1 [Compound I-1-396],2.91
6,CCOc1c(F)cccc1-n1ccc(NC(=O)c2ccccc2Cl)n1 [Compound I-1-397],2.74
7,CCOc1cccc(Cl)c1-n1ccc(NC(=O)c2ccccc2Br)n1 [Compound I-1-398],3.03
8,CCOc1cccc(F)c1-n1ccc(NC(=O)c2ccccc2Br)n1 [Compound I-1-399],2.87
9,O=C(Nc1ccn(-c2cncc(F)n2)n1)c1ccccc1C(F)(F)F [Compound I-1-401],3.33
10,O=C(Nc1ccn(-c2cncc(F)n2)n1)c1cccnc1C(F)(F)F [Compound I-1-402],2.76
11,O=C(Nc1ccn(-c2cncc(F)n2)n1)c1cccnc1Br [Compound I-1-404],3.19
12,O=C(Nc1ccn(-c2cncc(F)n2)n1)c1ccccc1I [Compound I-1-405],3.28
13,COc1ccccc1-n1ccc(NC(=O)c2ccccc2C(F)(F)F)n1 [Compound I-1-406],2.84
14,COc1ccccc1-n1ccc(NC(=O)c2cccnc2C(F)(F)F)n1 [Compound I-1-407],2.37
15,COc1ccccc1-n1ccc(NC(=O)c2c(F)cccc2F)n1 [Compound I-1-408],2.57
16,COc1ccccc1-n1ccc(NC(=O)c2cccnc2Br)n1 [Compound I-1-409],2.12
17,COc1ccccc1-n1ccc(NC(=O)c2ccccc2Cl)n1 [Compound I-1-410],2.70
18,COc1ccccc1-n1ccc(NC(=O)c2ccccc2I)n1 [Compound I-1-411],2.83
19,O=C(Nc1ccn(-c2ccccc2[N+](=O)[O-])n1)c1ccccc1C(F)(F)F [Compound I-1-415],2.63
20,O=C(Nc1ccn(-c2ccccc2[N+](=O)[O-])n1)c1cccnc1C(F)(F)F [Compound I-1-416],2.16

# Reference: US9802899B2, “Heterocyclic compounds as pesticides” (BAYER CROPSCIENCE AG, priority 2012, dated 2017)
